Laboratory results reported in paper PMC3203118, “Elucidation of the ATP7B N-Domain Mg^2+-ATP Coordination Site and Its Allosteric Regulation” (PLoS ONE, 2011).
Changes are numbered by the printed parent chain.

How the values were obtained:
Experiment in all cases: surface plasmon resonance (BIAcore), protein immobilised on CM4 chip
[1] = target: T1, ATP7B N-domain (Nucleotide binding domain) (Homo sapiens, UniProt P35670, N1150A); conditions: read-out: Kd (μM) / ATP
T1 construct: covalently immobilised on CM4 sensor chip
T1 sequence (P35670 1036-1196 N1150A): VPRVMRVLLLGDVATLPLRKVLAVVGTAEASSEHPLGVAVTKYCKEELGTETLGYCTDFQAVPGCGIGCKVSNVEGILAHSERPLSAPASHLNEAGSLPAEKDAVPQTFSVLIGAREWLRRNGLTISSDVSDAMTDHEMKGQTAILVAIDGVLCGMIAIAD
Description: (§1) surface plasmon resonance (BIAcore), protein immobilised on CM4 chip on ATP7B N-domain (Nucleotide binding domain)

[2] = target: T2, ATP7B N-domain (Nucleotide binding domain) (Homo sapiens, UniProt P35670); conditions: read-out: Kd (μM) / ATP
T2 construct: covalently immobilised on CM4 sensor chip
T2 sequence (P35670 1036-1196): T1 sequence (P35670 1036-1196 N1150A) with A115N
Description: as §1

[3] = target: T3, ATP7B N-domain (Nucleotide binding domain) (Homo sapiens, UniProt P35670, D1171A); conditions: read-out: Kd (μM) / ATP
T3 construct: covalently immobilised on CM4 sensor chip
T3 sequence (P35670 1036-1196 D1171A): T1 sequence (P35670 1036-1196 N1150A) with A115N, D136A
Description: as §1

[4] = target: T4, ATP7B N-domain (Nucleotide binding domain) (Homo sapiens, UniProt P35670, DEL1121-1137)
T4 construct: covalently immobilised on CM4 sensor chip
T4 sequence (P35670 with tags, fused parts or gaps DEL1121-1137): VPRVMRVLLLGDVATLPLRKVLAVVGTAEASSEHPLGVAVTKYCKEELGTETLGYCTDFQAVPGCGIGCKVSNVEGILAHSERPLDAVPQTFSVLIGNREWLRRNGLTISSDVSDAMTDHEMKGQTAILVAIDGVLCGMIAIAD
Description: as §1

[5] = target: T5, ATP7B N-domain (Nucleotide binding domain) (Homo sapiens, UniProt P35670, D1167A); conditions: read-out: Kd (μM) / ATP
T5 construct: covalently immobilised on CM4 sensor chip
T5 sequence (P35670 1036-1196 D1167A): T1 sequence (P35670 1036-1196 N1150A) with A115N, D132A
Description: as §1

[6] = target: T6, ATP7B N-domain (Nucleotide binding domain) (Homo sapiens, UniProt P35670, E1152A); conditions: read-out: Kd (μM) / ATP
T6 construct: covalently immobilised on CM4 sensor chip
T6 sequence (P35670 1036-1196 E1152A): T1 sequence (P35670 1036-1196 N1150A) with A115N, E117A
Description: as §1

[7] = target: T7, ATP7B N-domain (Nucleotide binding domain) (Homo sapiens, UniProt P35670, H1069Q); conditions: read-out: Kd (μM) / ATP
T7 construct: covalently immobilised on CM4 sensor chip
T7 sequence (P35670 1036-1196 H1069Q): T1 sequence (P35670 1036-1196 N1150A) with H34Q, A115N
Description: as §1

[8] = target: T8, ATP7B N-domain (Nucleotide binding domain) (Homo sapiens, UniProt P35670, D1167A/D1171A/E1152A)
T8 construct: covalently immobilised on CM4 sensor chip
T8 sequence (P35670 1036-1196 E1152A/D1167A/D1171A): T1 sequence (P35670 1036-1196 N1150A) with A115N, E117A, D132A, D136A
Description: as §1

With `Nc1ncnc2c1ncn2[C@@H]1O[C@H](COP(=O)(O)OP(=O)(O)OP(=O)(O)O)[C@@H](O)[C@H]1O` [ATP] the Kd [1] was 82.7 ± 4.16 µM, the Kd [2] was 74.2 ± 2.52 µM and the Kd [3] was 81.1 ± 3.16 µM. For the same compound, the Kd [4] was over 1000 µM, the Kd [5] was 96.9 ± 3.91 µM and the Kd [6] was 174 ± 3.82 µM. For the same compound, the Kd [7] was 76.5 ± 1.72 µM and the Kd [8] was over 1000 µM.
